Patent US20250257051A1, “SUBSTITUTED PYRIMIDINE COMPOUNDS AS TYK2 INHIBITORS” (1910 Genetics Inc., priority 2022, published 2025)
Counter-ions that a name gives are not always drawn.

Molecular target: human TYK2 (JH2domain-pseudokinase) (Homo sapiens (Human), UniProt P29597)
Assay: TYK2 JH2 Domain Binding Assay (KINOMEscan competition binding)
Conditions: KINOMEscan; 11-point 3-fold dilution, top concentration 30,000 nM; Kd measurements in duplicate; read-out: TYK JH2 (Kd)
Procedure: Binding constants for compounds disclosed herein may be determined by the KINOMEscan® assay developed by DiscoveRx. KINOMEscan® is based on a competition binding assay that quantitatively measures the ability of a compound to compete with an immobilized, active-site directed ligand. The assay is performed by combining three components: DNA-tagged kinase; immobilized ligand; and a test compound. The ability of the test compound to compete with the immobilized ligand is measure via quantitative PCR of the DNA tag.
Binding constants for compounds disclosed herein against the JH2 domain are determined by the following protocol for a KINOMEscan® assay (DiscoveRx). A fusion protein of a partial length construct of human TYK2 (JH2domain-pseudokinase) (amino acids G556 to D888 based on reference sequence NP 003322.3) and the DNA binding domain of NFkB is expressed in transiently transfected HEK293 cells. From these HEK 293 cells, extracts are prepared in M-PER extraction buffer (Pierce) in the presence of Protease Inhibitor Cocktail Complete (Roche) and Phosphatase Inhibitor Cocktail Set II (Merck) per manufacturers' instructions. The TYK2 (JH2domain-pseudokinase) fusion protein is labeled with a chimeric double-stranded DNA tag containing the NFkB binding site (5′-GGGAATTCCC-3′) fused to an amplicon for qPCR readout, which is added directly to the expression extract (the final concentration of DNA-tag in the binding reaction is 0.1 nM).
Streptavidin-coated magnetic beads (Dynal M280) are treated with a biotinylated small molecule ligand for 30 minutes at room temperature to generate affinity resins for the binding assays. The liganded beads are blocked with excess biotin and washed with blocking buffer (SeaBlock (Pierce), 1% BSA, 0.05% Tween 20, 1 mM DTT) to remove unbound ligand and to reduce nonspecific binding.
Extracts are used directly in binding assays without any enzyme purification steps at a >10,000-fold overall stock dilution (final DNA tagged enzyme concentration<0.1 nM). Extracts are loaded with DNA-tag and diluted into the binding reaction in a two-step process. First extracts are diluted 1:100 in 1× binding buffer (PBS/0.05% Tween 20/10 mM DTT/0.1% BSA/[…] sonicated salmon sperm DNA) containing 10 nM DNA-tag. This dilution is allowed to equilibrate at room temperature for 15 minutes and then subsequently diluted 1:100 in 1× binding buffer. Test compounds are prepared as 111× stocks in 100% DMSO. Kds are determined using an 11-point 3-fold compound dilution series with three DMSO control points. All compounds for Kd measurements are distributed by acoustic transfer (non-contact dispensing) in 100% DMSO. The compounds are then diluted directly into the assays such that the final concentration of DMSO is 0.9%. All reactions performed in polypropylene 384-well plates. Each is a final volume of 0.02 mL. Assays are incubated with shaking for 1 hour at room temperature. Then the beads are pelleted and washed with wash buffer (lx PBS, 0.05% Tween 20) to remove displaced kinase and test compound. The washed beads are re-suspended in elution buffer (lx PBS, 0.05% Tween 20, 0.5 μM non-biotinylated affinity ligand) and incubated at room temperature with shaking for 30 minutes. The kinase concentration in the eluates is measured by qPCR. qPCR reactions are assembled by adding 2.5 μL of kinase eluate to 7.5 μL of qPCR master mix containing 0.15 μM amplicon primers and 0.15 μM amplicon probe. The qPCR protocol consists of a 10-minute hot start at 95° C., followed by 35 cycles of 95° C. for 15 seconds, 60° C. for 1 minute.
Test compounds are prepared as 111× stocks in 100% DMSO. Kds are determined using an 11-point 3-fold compound dilution series with three DMSO control points. All compounds for Kd measurements are distributed by acoustic transfer (non-contact dispensing) in 100% DMSO. The compounds are then diluted directly into the assays such that the final concentration of DMSO is 0.9%. […]

Sequence of human TYK2 (JH2domain-pseudokinase) (P29597 556-888): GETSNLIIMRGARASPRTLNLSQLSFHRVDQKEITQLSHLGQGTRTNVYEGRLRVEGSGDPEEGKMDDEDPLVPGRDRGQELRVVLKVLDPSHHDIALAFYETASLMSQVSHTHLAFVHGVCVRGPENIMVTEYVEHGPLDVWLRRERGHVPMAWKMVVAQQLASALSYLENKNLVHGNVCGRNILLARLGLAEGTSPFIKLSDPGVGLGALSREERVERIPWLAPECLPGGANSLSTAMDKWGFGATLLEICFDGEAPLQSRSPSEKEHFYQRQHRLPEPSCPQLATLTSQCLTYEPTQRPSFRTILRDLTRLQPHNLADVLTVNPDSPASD

Kd [µM]	SMILES
19	COc1ccccc1Nc1nc(N2CCCN(C(=O)OC(C)(C)C)CC2)ncc1C(N)=O [Compound 41, Tert-Butyl 4-(5-carbamoyl-4-((2-methoxyphenyl)amino)pyrimidin-2-yl)-1,4-diazepane-1-carboxylate]
3.3	COc1ccccc1Nc1nc(N2CCNCC2C)ncc1C(N)=O (stereo not drawn) [Compound 42, 4-((2-methoxyphenyl)amino)-2-(2-methylpiperazin-1-yl)pyrimidine-5-carboxamide hydrochloride]
7.5	COc1ccccc1Nc1nc(N2CCN(C(=O)OC(C)(C)C)CC2C)ncc1C(N)=O (stereo not drawn) [Compound 43, Tert-Butyl 4-(5-carbamoyl-4-((2-methoxyphenyl)amino)pyrimidin-2-yl)-3-methylpiperazine-1-carboxylate]
2.4	COc1ccccc1Nc1nc(N2CCC(C(=O)O)CC2)ncc1C(N)=O [Compound 44, 1-(5-carbamoyl-4-((2-methoxyphenyl)amino)pyrimidin-2-yl)piperidine-4-carboxylic Acid]
0.2	CCOC(=O)C1CCN(c2ncc(C(N)=O)c(Nc3ccccc3OC)n2)CC1 [Compound 45, Ethyl 1-(5-carbamoyl-4-((2-methoxyphenyl)amino)pyrimidin-2-yl)piperidine-4-carboxylate]
6.6	NC(=O)c1cnc(N2CCCNCC2)nc1Nc1ccc(C2CC2)nc1 [Compound 46, 4-((6-cyclopropylpyridin-3-yl)amino)-2-(1,4-diazepan-1-yl)pyrimidine-5-carboxamide Hydrochloride]
6.7	CC(C)(C)OC(=O)N1CCCN(c2ncc(C(N)=O)c(Nc3ccc(C4CC4)nc3)n2)CC1 [Compound 47, Tert-Butyl 4-(S-carbamoyl-4-((6-cyclopropylpyridin-3-yl)amino)pyrimidin-2-yl)-1,4-diazepane-1-carboxylate]
0.0005	CNC(=O)C1CN(c2ncc(C(N)=O)c(Nc3cccc(-c4ncc(F)cn4)c3OC)n2)C1 [Compound 48, 4-((3-(5-fluoropyrimidin-2-yl)-2-methoxyphenyl)amino)-2-(3-(methylcarbamoyl)azetidin-1-yl)pyrimidine-5-carboxamide]
0.0023	CNC(=O)c1cnc(N2CC(C(=O)NC)C2)nc1Nc1cccc(-c2ncc(F)cn2)c1OC [Compound 49, 4-((3-(5-fluoropyrimidin-2-yl)-2-methoxyphenyl)amino)-N-methyl-2-(3-(methylcarbamoyl)azetidin-1-yl)pyrimidine-5-carboxamide]
0.11	CNC(=O)C1CN(c2ncc(C(N)=O)c(Nc3ccc(C4CC4)nc3)n2)C1 [Compound 50, 4-((6-cyclopropylpyridin-3-yl)amino)-2-(3-(methylcarbamoyl)azetidin-1-yl)pyrimidine-5-carboxamide]
1.5	CNC(=O)c1cnc(N2CC(C(=O)NC)C2)nc1Nc1ccc(C2CC2)nc1 [Compound 51, 4-((6-cyclopropylpyridin-3-yl)amino)-N-methyl-2-(3-(methylcarbamoyl)azetidin-1-yl)pyrimidine-5-carboxamide]
0.0016	CNC(=O)[C@H]1CCN(c2ncc(C(N)=O)c(Nc3cccc(-c4ncc(F)cn4)c3OC)n2)C1 [Compound 52, (S)-4-((3-(5-fluoropyrimidin-2-yl)-2-methoxyphenyl)amino)-2-(3-(methylcarbamoyl)pyrrolidin-1-yl)pyrimidine-5-carboxamide]
0.00011	CNC(=O)[C@@H]1CCN(c2ncc(C(N)=O)c(Nc3cccc(-c4ncc(F)cn4)c3OC)n2)C1 [Compound 53, (R)-4-((3-(5-fluoropyrimidin-2-yl)-2-methoxyphenyl)amino)-2-(3-(methylcarbamoyl)pyrrolidin-1-yl)pyrimidine-5-carboxamide]
0.16	O=C(NO)c1cnc(N2CCCC2)nc1Nc1ccc(C2CC2)nc1 [Compound 54, 4-((6-cyclopropylpyridin-3-yl)amino)-N-hydroxy-2-(pyrrolidin-1-yl)pyrimidine-5-carboxamide]
11	CNC(=O)c1cnc(N2CCC(C(=O)NC)C2)nc1NC(=O)c1n[nH]c2c(OC)cccc12 (stereo not drawn) [Compound 56, 7-methoxy-N-(5-(methylcarbamoyl)-2-(3-(methylcarbamoyl)pyrrolidin-1-yl)pyrimidin-4-yl)-1H-indazole-3-carboxamide]
0.049	COc1c(Nc2nc(N3CCNCC3C)ncc2C(N)=O)cccc1-c1ncc(F)cn1 (stereo not drawn) [Compound 57, 4-((3-(5-fluoropyrimidin-2-yl)-2-methoxyphenyl)amino)-2-(2-methylpiperazin-1-yl)pyrimidine-5-carboxamide]
1.8	COc1ccccc1Nc1nc(N2CCCN(C(C)=O)CC2)ncc1C(N)=O [Compound 58, 2-(4-acetyl-1,4-diazepan-1-yl)-4-((2-methoxyphenyl)amino)pyrimidine-5-carboxamide]
0.27	COc1ccccc1Nc1nc(N2CCN(C(C)=O)CC2C)ncc1C(N)=O (stereo not drawn) [Compound 59, 2-(4-acetyl-2-methylpiperazin-1-yl)-4-((2-methoxyphenyl)amino)pyrimidine-5-carboxamide]
0.002	COc1c(Nc2nc(N3CCN(C(C)=O)CC3C)ncc2C(N)=O)cccc1-c1ncc(F)cn1 (stereo not drawn) [Compound 60, 2-(4-acetyl-2-methylpiperazin-1-yl)-4-((3-(5-fluoropyrimidin-2-yl)-2-methoxyphenyl)amino)pyrimidine-5-carboxamide]
0.015	CNC(=O)c1cnc(N2CCN(C(C)=O)CC2C)nc1Nc1cccc(-c2ncc(F)cn2)c1OC (stereo not drawn) [Compound 61, 2-(4-acetyl-2-methylpiperazin-1-yl)-4-((3-(5-fluoropyrimidin-2-yl)-2-methoxyphenyl)amino)-N-methylpyrimidine-5-carboxamide]
1.4	CC(=O)N1CCCN(c2ncc(C(N)=O)c(Nc3ccc(C4CC4)nc3)n2)CC1 [Compound 64, 2-(4-acetyl-1,4-diazepan-1-yl)-4-((6-cyclopropylpyridin-3-yl)amino)pyrimidine-5-carboxamide]
6.3	CNC(=O)c1cnc(N2CCCN(C(=O)OC(C)(C)C)CC2)nc1Nc1ccccc1S(C)(=O)=O [Compound 66, Tert-Butyl 4-(S-(methylcarbamoyl)-4-((2-(methylsulfonyl)phenyl)amino)pyrimidin-2-yl)-1,4-diazepane-1-carboxylate]
3.4	CNC(=O)c1cnc(N2CCCNCC2)nc1Nc1ccccc1S(C)(=O)=O [Compound 67, 2-(1,4-diazepan-1-yl)-N-methyl-4-((2-(methylsulfonyl)phenyl)amino)pyrimidine-5-carboxamide hydrochloride]
0.16	CNC(=O)c1cnc(N2CCC(C(=O)O)CC2)nc1Nc1ccccc1S(C)(=O)=O [Compound 68, 1-(5-(methylcarbamoyl)-4-((2-(methylsulfonyl)phenyl)amino)pyrimidin-2-yl)piperidine-4-carboxylic Acid]
1.8	CNC(=O)c1cnc(N2CCNCC2C)nc1Nc1ccccc1S(C)(=O)=O (stereo not drawn) [Compound 69, N-methyl-2-(2-methylpiperazin-1-yl)-4-((2-(methylsulfonyl)phenyl)amino)pyrimidine-5-carboxamide Hydrochloride]
4	CNC(=O)c1cnc(N2CCN(C(C)=O)CC2C)nc1Nc1ccc(C2CC2)nc1 (stereo not drawn) [Compound 70, 2-(4-acetyl-2-methylpiperazin-1-yl)-4-((6-cyclopropylpyridin-3-yl)amino)-N-methylpyrimidine-5-carboxamide]
0.47	COc1c(Nc2nc(N3CCCN(C(=O)OC(C)(C)C)CC3)ncc2C(N)=O)cccc1-c1ncc(F)cn1 [Compound 71, tert-butyl 4-(S-carbamoyl-4-((3-(5-fluoropyrimidin-2-yl)-2-methoxyphenyl)amino)pyrimidin-2-yl)-1,4-diazepane-1-carboxylate]
